The record followed here is US20110171329A1, “METHOD FOR TREATMENT OF NEURAL INJURIES” (priority 2009, published 2011).

The test system of assay [1] is cortical mixed neuronal-glial cultures. As to the kind of experiment: DCF assay of toxin-induced free radical formation in cortical mixed neuronal-glial cultures. Format: cell-based, rat. As for the experimental part:
(§1) Mixed neuron-glia cell cultures were prepared from the spinal, mesencephalic and cortical regions of an embryonic Sprague-Dawley rat fetus (gestation day 15), respectively, as described in Tsai et al. (Ann. N.Y. Acad. Sci. 1042 (2005):338-348). Briefly, cells were dissociated with a mixture of papain/protease/deoxyribonuclease I (0.1%:0.1%:0.03%) and plated onto poly-lysine coated dishes at a density of 1 to 2×10^5 cells/cm^2 with Dulbecco's modified Eagle's medium (DMEM) supplemented with 10% fetal bovine serum (FBS). On the second day after cell seeding, the cultures were maintained in DMEM+10% FBS or in DMEM supplemented with N2 (Invitrogen, Carlsbad, Calif.) as serum-free medium.
(§2) On the 2nd or 3rd day after cell seeding, the cultures were firstly loaded with 50 μM DCFH-DA in serum-free medium (DMEM+N2) for 1 hr. The medium was then replaced with growth medium containing H2O2 (1 mM) or t-BOOH (0.75 mM) and the cultures were maintained in the growth medium for 2 hrs. HD2 (20 to 200 μg/ml) and baicalein (2 or 10 μM) were then added to the cultures within 10 minutes after the toxin treatment started, respectively. The resulted fluorescent DCF levels were measured by a fluorescence plate reader (ex/em: 485 nm/538 nm). FIGS. 5 and 6 show the results of the measurement.

Assay [2] has as its system spinal cord mixed neuronal-glial cultures. As to the kind of experiment: DCF assay of toxin-induced free radical formation in spinal cord mixed neuronal-glial cultures. Format: cell-based, rat. The procedure:
as §1, §2

[3] abbreviates: H2O2 1 mM, baicalein 2 and 10 μM.
[4] abbreviates: t-BOOH 0.75 mM, baicalein 2 or 10 μM, P<0.01.

On to `O=c1cc(-c2ccccc2)oc2cc(O)c(O)c(O)c12` [baicalein], for which the “free radical level induced by H2O2” value in assay [1] (setting [3]) and in assay [2] (setting [3]) was “significantly reduced” in each case. Further, the “free radical level induced by t-BOOH” value in assay [1] (setting [4]) and in assay [2] (setting [4]) was “significantly inhibited” throughout.
